Ends that are not written are not given here.

These results are taken from patent publication US6107104A, “Modulators of anchoring protein function” (ICOS Corporation, priority 1996, dated 2000).

The conditions of data set [1]: in vivo; cited from earlier work.
Data set [2] concerns the target T1, CaN (Rattus norvegicus, UniProt P63329).
T1 construct: made in house; host or cells: Sf9 cells (baculovirus)
Kind of data set: CaN phosphatase activity toward 32P RII peptide substrate. The format is biochemical. As to the method: (§1) To determine whether AKAP 79 peptide binding inhibits CaN activity, CaN phosphatase activity was assayed in the presence of recombinant AKAP 79. Briefly, recombinant AKAP 79 was expressed in E. coli as described in Carr et al., J. Biol. Chem., 267:16816-16823 (1992), incorporated herein by reference. CaN and the constitutively active truncation mutant CaN420 (a truncated, Ca^2+ /calmodulin independent constitutively active form of CaN (Perrino et al., J. Biol. Chem., in press)) were expressed in Sf9 cells and purified on calmodulin-Sepharose as described in Perrino et al., J. Biol Chem., 267:15965-15969 (1992), incorporated herein by reference. Phosphatase activity toward ^32 P RII peptide substrate was measured as described in Perrino et al., supra. CaN (30 nM), calmodulin (100 nM) and ^32 P RII peptide (22 μM) were incubated with AKAP 79 protein and AKAP 79 peptide (SEQ ID NO:1-amino acids 81-102) over the range of concentrations indicated in FIG. 1B. Calmodulin was omitted from CaN420 assays. ^32 P released from the substrate was measured in triplicate samples in three separate experiments by scintillation counting. The inhibition constant (Ki) of recombinant AKAP 79 for CaN was determined by linear regression analysis of data. Ki values for AKAP 79 peptide were estimated by determining the IC50 using a fixed substrate concentration at Km (42 μM).

The conditions of data set [3]: following liver transplantation; cited from earlier work.
The test system of data set [4] is ^32 P-inhibitor 1. Briefly: Calcineurin phosphatase assay of reconstituted CaN holo-enzyme. The format is biochemical. As to conditions: in association with CaN B, ten minute incubation at room temperature, 33 nM complex. As to the method: The activity of CaN is measured by the Ca^2+ --and calmodulin-dependentrelease of ^32 Pi from ^32 P-inhibitor 1, using the method of Nairn, et al. [Neuroprotocols 6:108-111 (1995)]. Identified chemicals are pre-incubated with 4 or 30 nM CaN before initiation of the reaction with ^32 P-inhibitor 1 (Chemicon). Inhibitor 1 (50 μg) was phosphorylated using the catalytic subunit of PKA and purified according to the procedure described in Nairn, et al., [supra]. Phosphatase activity in the absence of chemicals is defined as 100%.
In order to determine if the mutated CaN A protein retained phosphatase activity, a CaN holo-enzyme was reconstituted. One micromole of purified wild type or mutant CaN A was incubated with equal molar amount of purified CaN B (Chemicon), and calmodulin (Sigma) in 50 mM Hepes, pH 7.5, 1 mM MnCl2, 0.5 mM EDTA, 1 mM DDT, and 2 mg/ml BSA, for 24 hours at 4° C., after which 33 nM of the reconstituted complex was used in a calcineurin phosphatase assay using ^32 P-inhibitor 1 as substrate as described in Example 14.

Data set [5] concerns protein phosphatases 2A. Briefly: Protein phosphatase 2A activity. As to conditions: peptide concentrations as high as 0.4 mM. The format is biochemical.
Data set [6] concerns the target T2, CaN420 (Rattus norvegicus, UniProt P63329).
T2 construct: a truncated, Ca^2+ /calmodulin independent constitutively active form of CaN; made in house; host or cells: Sf9 cells (baculovirus)
Briefly: CaN420 phosphatase activity toward 32P RII peptide substrate. The format is biochemical. As to conditions: calmodulin omitted. As to the method: as §1

The test system of data set [7] is protein phosphatases 1. Kind of data set: Protein phosphatase 1 activity. The format is biochemical. As to conditions: peptide concentrations as high as 0.4 mM.

Regarding `N=C(N)NCCCCCCC(=O)NC(O)C(=O)NCCCCNCCCN` (centres unmarked) [15-Deoxyspergualin], the “effective in refractory kidney rejection” value in data set [1] is given as 70-90%.

Regarding `C=CC[C@@H]1/C=C(\C)C[C@H](C)C[C@H](OC)[C@H]2O[C@@](O)(C(=O)C(=O)N3CCCC[C@H]3C(=O)O[C@H](/C(C)=C/[C@@H]3CC[C@@H](O)[C@H](OC)C3)[C@H](C)[C@@H](O)CC1=O)[C@H](C)C[C@@H]2OC` [FK506, reference compound], the “effect on the potency of inhibition of CaN by AKAP 79” value in data set [2] (FK506 2 μM) is on record as “did not affect”. Also, the “patients with moderate to severe neurotoxicity” value in data set [3] was 10-20%.

Regarding “biotinylated CaN A: endogenously biotinylated rat brain calcineurin A, wild type”, the dephosphorylation of substrate in data set [4] was found to be 33%.

Regarding RRKRSQSSKEEKP [AKAP 79 peptide], in data set [5], the “effect on activity of protein phosphatase 2A” value is listed as “did not significantly affect”. The “inhibition of full-length CaN phosphatase activity” value in data set [2] (Ca2+/calmodulin dependent CaN 30 nM, 32P RII peptide substrate) is recorded as “inhibited”. Also, the “inhibition of CaN420 phosphatase activity” value in data set [6] was “inhibited”. Further, the “effect on activity of protein phosphatase 1” value in data set [7] is “did not significantly affect”.
